“And” between values parts separate entries of the source, which are not always exact repeats. Identical values can stand only once.
Tests used:
[1] = Crystal; for Normal melting temperature: DTA
[2] = Molar enthalpy of transition or fusion; details: Crystal; DSC

FC(F)(F)C(F)(F)C(F)(F)C(F)(F)C(F)(F)C(F)(F)C(F)(F)C(F)(F)C(F)(F)C(F)(F)C(F)(F)C(F)(F)C(F)(F)C(F)(F)C(F)(F)C(F)(F)C(F)(F)C(F)(F)C(F)(F)C(F)(F)F [dotetracontafluoroeicosane]
Details	Molar enthalpy of transition or fusion [kcal/mol]	Normal melting temperature [°C]
[1]	–	163.1
[2]	12	–

FC(F)(F)C(F)(F)C(F)(F)C(F)(F)C(F)(F)C(F)(F)C(F)(F)C(F)(F)C(F)(F)C(F)(F)C(F)(F)C(F)(F)F [hexacosafluorododecane]
[1]
Details	vapor or sublimation pressure [kPa]
313.3 K	0.0672
318.2 K	0.1074
323.2 K	0.1781
328.2 K	0.2832
333.2 K	0.4571
338.2 K	0.7269
343.2 K	1.039
348.2 K	1.63

Details	Molar enthalpy of transition or fusion [kcal/mol]	Normal melting temperature [°C]
[1]	–	73.5
[2]	5.78	–

Fc1c(F)c(F)c(-c2c(F)c(F)c(F)c(F)c2F)c(F)c1F [perfluorobiphenyl]
Details	Molar enthalpy of transition or fusion [kcal/mol]	Normal melting temperature [°C]
[1]	–	66.5
[2]	4.9	–

FC(F)(F)C(F)(F)C(F)(F)C(F)(F)C(F)(F)C(F)(F)C(F)(F)C(F)(F)C(F)(F)C(F)(F)C(F)(F)C(F)(F)C(F)(F)C(F)(F)C(F)(F)F [perfluoropentadecane]
[1]
Details	vapor or sublimation pressure [kPa]
312.1 K	0.0006
323.2 K	0.0025
333.2 K	0.00776
338.2 K	0.0139
343.3 K	0.0238
348.2 K	0.0408
353.1 K	0.0662
358.2 K	0.1119
363.2 K	0.1796
368.2 K	0.2908

Details	Molar enthalpy of transition or fusion [kcal/mol]	Normal melting temperature [°C]
[1]	–	115.0
[2]	8.39	–

FC(F)(F)C(F)(F)C(F)(F)C(F)(F)C(F)(F)C(F)(F)C(F)(F)C(F)(F)C(F)(F)C(F)(F)C(F)(F)C(F)(F)C(F)(F)C(F)(F)C(F)(F)C(F)(F)C(F)(F)C(F)(F)C(F)(F)C(F)(F)C(F)(F)C(F)(F)C(F)(F)C(F)(F)F [perfluorotetracosane]
Details	Molar enthalpy of transition or fusion [kcal/mol]	Normal melting temperature [°C]
[1]	–	188.0
[2]	15.1	–

FC(F)(F)C(F)(F)C(F)(F)C(F)(F)C(F)(F)C(F)(F)C(F)(F)C(F)(F)C(F)(F)C(F)(F)C(F)(F)C(F)(F)C(F)(F)F [perfluorotridecane]
[1]
Details	vapor or sublimation pressure [kPa]
313.2 K	0.0143
318.4 K	0.0253
323.4 K	0.0443
329.3 K	0.0796
333.5 K	0.1199
339.3 K	0.2077
343.3 K	0.297
349.2 K	0.5217
354.1 K	0.8357
358.2 K	1.147

Details	Molar enthalpy of transition or fusion [kcal/mol]	Normal melting temperature [°C]
[1]	–	88.6
[2]	6.67	–

FC(F)(F)C(F)(F)C(F)(F)C(F)(F)C(F)(F)C(F)(F)C(F)(F)C(F)(F)C(F)(F)C(F)(F)C(F)(F)C(F)(F)C(F)(F)C(F)(F)C(F)(F)C(F)(F)F [tetratriacontafluorohexadecane]
Details	Molar enthalpy of transition or fusion [kcal/mol]	Normal melting temperature [°C]
[1]	–	126.6
[2]	9.25	–

FC(F)(F)C(F)(F)C(F)(F)C(F)(F)C(F)(F)C(F)(F)C(F)(F)C(F)(F)C(F)(F)C(F)(F)C(F)(F)C(F)(F)C(F)(F)C(F)(F)F [triacontafluorotetradecane]
[1]
Details	vapor or sublimation pressure
313.2 K	0.00349 kPa
318.2 K	0.00664 kPa
328.2 K	0.0191 kPa
333.2 K	0.0315 kPa
338.2 K	0.053 kPa
343.2 K	0.0971 kPa
348.2 K	0.161 kPa
353.1 K	0.2493 kPa
358.2 K	0.4128 kPa and 0.4025 kPa

Details	Molar enthalpy of transition or fusion [kcal/mol]	Normal melting temperature [°C]
[1]	–	102.5
[2]	7.53	–

From the NIST ThermoML archive (doi:10.1021/je300504f)
